Results on 4 compounds are retold here after article PMC6691773, “Non-covalent immunoproteasome inhibitors induce cell cycle arrest in multiple myeloma MM.1R cells” (Journal of Enzyme Inhibition and Medicinal Chemistry, 2019).

The target of assay [1] is Human 20S immunoproteasome β1i (Homo sapiens, UniProt P28065). Kind of assay: 20S immunoproteasome inhibition, β1i chymotrypsin-like activity (Ac-Pro-Ala-Leu-AMC).
Experimental: (§3) Human 20S immunoproteasome was incubated at 30 °C at a final concentration of 0.004 mg/mL with test compound present at variable concentrations. The reaction buffer consisted of 50 mM Tris HCl, pH 7.4, 10 mM NaCl, 25 mM KCl, 1 mM MgCl2, 0.03% SDS. Product release from substrate hydrolysis (50 µM) was monitored continuously over a period of 10 min.
In assay [2] the target is Human 20S immunoproteasome β5i (Homo sapiens, UniProt P28062). Kind of assay: 20S immunoproteasome inhibition, β5i chymotrypsin-like activity (Suc-Leu-Leu-Val-Tyr-AMC). The following applies: for inhibition at 100 µM: read-out: inhibition of one or two ChT-L activities.
Experimental: as §3
Assay [3] concerns the target β5c subunit of constitutive proteasome. Also noted: method as in PMID 24561716, PMID 24946214. Particulars: ChT-L activity of constitutive proteasome; read-out: Ki against β5c subunit; cited from earlier work.
The target in assay [4] is T1, Human 20S immunoproteasome β2i (Homo sapiens, UniProt P40306).
T1 construct: Human 20S immunoproteasome, isolated from human spleen; purchased Enzo Life Science; host or cells: human spleen (tissue-isolated)
Kind of assay: 20S immunoproteasome inhibition, β2i trypsin-like activity (Boc-Leu-Arg-Arg-AMC). The assay is classed as biochemical. Particulars: 100 µM inhibitor, preliminary screening. As for the experimental part: Human 20S immunoproteasome, isolated from human spleen, was purchased from Enzo Life Science Supplier. The three distinct proteolytic activities of the 20S immunoproteasome were measured by monitoring the hydrolysis of the peptidyl 7-amino-4-methyl coumarin substrates Suc-Leu-Leu-Val-Tyr-AMC (Bachem), Boc-Leu-Arg-Arg-AMC (Bachem) and Ac-Pro-Ala-Leu-AMC (Biomol GmbH) for β5i, β2i and β1i activities of immunoproteasome, respectively. […] Inhibitor solutions were prepared from stocks in DMSO. Each independent assay was performed twice in duplicate in 96-well-plates in a total volume of 200 µL. Fluorescence of the product AMC of the substrate hydrolyses was measured using an Infinite 200 PRO microplate reader (Tecan, Männedorf, Switzerland) at 30 °C with a 380 nm excitation filter and a 460 nm emission filter.
Human 20S immunoproteasome was incubated at 30 °C at a final concentration of 0.004 mg/mL with test compound present at variable concentrations. The reaction buffer consisted of 50 mM Tris HCl, pH 7.4, 50 mM NaCl, 0.5 mM EDTA III, 0.03% SDS. Product release from substrate hydrolysis (50 µM) was monitored continuously over a period of 10 min.

In a further assay the test system is MM.1R cells. Kind of assay: Cytotoxicity by MTT assay. The assay is classed as cell-based. Particulars: Homo sapiens, 24 h, dexamethasone-resistant cells, read-out: EC50 against MM.1R cells. The protocol: To test the efficacy of 5 and 6 a cell viability assay was performed. Human multiple myeloma cells (MM.1R; ATCC® CRL-2975™) resistant to dexamethasone were purchased by LGC Standards (Milan, Italy) and cultured under standard conditions (37 °C, 5% CO2) with standard RPMI 1640 medium added with L-glutamine, 10% foetal bovine serum, and 1% antibiotic mixture (penicillin/streptomycin) in sterile flasks. Cells were grown for a week before the assay. Compounds 5–6 were tested at different doses (1–10-20–40-80–100 µM) in a 96 well plate for 24 h to determine the cytotoxic effect. […] At the end of the 5 h, the medium was removed and the insoluble formazan crystals were dissolved with 200 µl/well of dimethyl sulphoxide (DMSO), and the absorbance was read at 540 and 620 nm. The difference between the two absorbance values was used to calculate mean for each replicate and further assess cytotoxicity. […] Results were expressed as % of vitality and reported as means and SEM.
To test the efficacy of compounds 5–6 in a cell system, we used dexamethasone-resistant human multiple myeloma cells (MM.1R), which are less responsive to chemotherapy, and are representative of patients in the later stages of the disease, as previously described. […] MM.1R cell survival was determined by the tetrazolium dye MTT assay and untreated cells were used as reference and assumed as the 100% of vital cells (Figure 2).

The next assay relates to ubiquitin in MM.1R cells. Description: Ubiquitin accumulation by western blot. The assay is classed as cell-based, human. The following applies: 24 h, versus ctrl. The protocol: (§1) To test the inhibitory effect on proteasome activity, ubiquitin, cyclins, CDK, NF-kB and pNF-kB were assessed by western blot. […] After 24 h, cells were collected and protein extracted for analysis. Protein extraction and western blot analysis were performed as previously described.
(§2) Briefly, a total of 15 µg of proteins were loaded in each lane and specific antibodies were used to detect ubiquitin (Abcam, Cambridge, UK), cyclin A, cyclin B, cyclin D1, CDK1, CDK4/6, NF-kB, pNF-kB, PARP, and Caspase-3 (Cell Signaling, Danvers, MA, United States). Beta actin (Cell Signaling), was used on stripped blots as loading control. The images have been acquired using a dedicated software and densitometric data were expressed as integrated intensity and reported as means and SEM.
To test the efficacy of these compounds in inhibiting ubiquitinated protein degradation, a western blot analysis of ubiquitin was performed (Figure 3). In fact, considering that proteasome inhibition leads the cells to accumulate ubiquitinated protein into the cytoplasm, we decided to assess the changes in levels of total ubiquitinated proteins indirectly, by detecting changes in total ubiquitin levels, by western blot analysis. […] It is worth noting that these changes were dose-dependent, this adding an additional level of confidence in our experimental approach.

Another assay concerns cyclin A in MM.1R cells. Kind of assay: Cyclin A level by western blot. The assay is classed as cell-based, human. The following applies: 24 h, 15 and 20 µM. The protocol:
as §1, §2

Another assay deals with cyclin D1 in MM.1R cells. Description: Cyclin D1 level by western blot. The assay is classed as cell-based, human. Particulars: 24 h, 20 µM. As for the experimental part: as §1, §2
For another assay, the system named is pNF-kB in MM.1R cells. Description: pNF-kB level by western blot. The assay is classed as cell-based, human. Particulars: 24 h. As for the experimental part: as §1, §2
Another assay concerns PARP in MM.1R cells. Kind of assay: PARP expression by western blot. The assay is classed as cell-based, human. Particulars: 24 h. The protocol: as §1, §2
Another assay relates to Caspase-3 in MM.1R cells. Description: Caspase-3 expression by western blot. Particulars: 24 h. The assay is classed as cell-based, human. The protocol:
as §1, §2

For the next assay, the system named is cyclin B in MM.1R cells. Kind of assay: Cyclin B level by western blot. The assay is classed as cell-based, human. Particulars: 24 h, 20 µM. The protocol:
as §1, §2

A further assay deals with CDK1 in MM.1R cells. Description: CDK1 level by western blot. The assay is classed as cell-based, human. Particulars: 24 h, p < .05. As for the experimental part:
as §1, §2

The next assay concerns CDK4/6 in MM.1R cells. Description: CDK4/6 level by western blot. Particulars: 24 h, p < .0005. The assay is classed as cell-based, human. The protocol:
as §1, §2

For another assay, the system named is NF-kB in MM.1R cells. Kind of assay: NF-kB level by western blot. The assay is classed as cell-based, human. Particulars: 24 h. The protocol:
as §1, §2

Some results are limits rather than exact numbers.

Consider `CC(C)CCNC(=O)Cn1ccc2ncccc2c1=O` [Compound 1], for which the figures for the Ki in assay [1] and in [2] were 4.9 µM and 4.39 µM, respectively.
Regarding `CC(C)CCNC(=O)Cn1ccc2c(c1=O)CCCN2` [Compound 3], the Ki in [3] was 10.5 µM.
In the case of `CC(C)CCNC(=O)Cn1cc(Br)c2ncccc2c1=O` [Compound 5], the inhibition at 100 µM is 19% in assay [4], 36% in assay [1] (read-out: % of inhibition at 100 µM β1i) and more than 70% in assay [2]. The EC50 in the assay with MM.1R cells was determined as 21.2 µM. Moreover, the ubiquitin accumulation entry in the assay on ubiquitin in MM.1R cells (all tested concentrations) was “no significant increase”. Besides, the “cyclin A level” value with cyclin A in MM.1R cells is reported as “No trend of reduction”. In addition, in the assay on cyclin D1 in MM.1R cells, the “cyclin D1 level” value was “able to reduce”. In the assay with pNF-kB in MM.1R cells, the pNF-kB level result is “paradoxical increase”. Also, the PARP expression result in the assay with PARP in MM.1R cells was “No significant difference”. The Caspase-3 expression entry in the assay with Caspase-3 in MM.1R cells was “No significant difference”. Further, the Ki was 0.56 µM in assay [3] and 6.04 ± 0.29 µM in assay [2].
`CC(C)CCNC(=O)Cn1ccc2ccc(Br)cc2c1=O` [Compound 6]: the inhibition at 100 µM was 24% in [4] and more than 70% in assay [2]. In the assay with MM.1R cells, the EC50 was 17.8 µM. In the assay on ubiquitin in MM.1R cells (20 µM), the ubiquitin accumulation result is recorded as “significant increase”. Moreover, in the assay on cyclin A in MM.1R cells, the “cyclin A level” value was “very significant (p < .005) reduction”. The “cyclin B level” value with cyclin B in MM.1R cells is “consistent reduction”. The “cyclin D1 level” value with cyclin D1 in MM.1R cells is given as “consistent reduction”. The CDK-1 level result in the assay on CDK1 in MM.1R cells was “changed”. Moreover, the CDK4/6 level result in the assay with CDK4/6 in MM.1R cells was “changed”. For the same compound, the NF-kB level result in the assay with NF-kB in MM.1R cells is listed as “dose-dependent increase”. Besides, the pNF-kB level entry in the assay on pNF-kB in MM.1R cells is listed as “trend of reduction”. For the same compound, the PARP expression result in the assay with PARP in MM.1R cells was “No significant difference”. Also, in the assay on Caspase-3 in MM.1R cells, the Caspase-3 expression result was “No significant difference”. Also, the figures for the Ki in assay [3], in [1] and in [2] were 2.34 µM, 4.9 ± 0.04 µM and 4.39 ± 0.18 µM, respectively.
